Test results: patent EP4786487A1, “PEPTIDE” (Peptidream Inc, priority 2023, dated 2025)
Read-outs that look alike come from different tables or passages of the source. Starred links: 1 amine or outer side, 2 acyl side, 3 side chain; linkers in the order of their positions; H or OH if unused. Positions of bridges follow the written chain, without caps; N, C: chain ends. Non-standard residues stand in square brackets, D forms with d. Residues, ends and D or L forms follow the SMILES beside them. Groups on a side chain read outwards from the residue. *: point of attachment. Ala(1-CH2CO2H-4-piperidyl) = N[C@@H](CC1CCN(CC(=O)O)CC1)C(=O)O; X4 = CN(C)C(=O)Cn1cc(-c2ccc(C[C@H](N[*:1])C(=O)[*:2])cc2)cn1; Phe(3-OCH2COOH) = N[C@@H](Cc1cccc(OCC(=O)O)c1)C(=O)O; Trp(1-Ph) = N[C@@H](Cc1cn(-c2ccccc2)c2ccccc12)C(=O)O; X2 = CC(=O)N1CCC(C[C@@H](C(=O)[*:2])N(C)[*:1])CC1; Phe(4-COOH) = N[C@@H](Cc1ccc(C(=O)O)cc1)C(=O)O; Trp(6-aza) = N[C@@H](Cc1c[nH]c2cnccc12)C(=O)O; Piperazinyl(4-CH2COOH) = O=C(O)CN1CCN(*)CC1; Piperidinyl(4-CH2COOH) = O=C(O)CC1CCN(*)CC1; 3Pal(6-NH2) = Nc1ccc(C[C@H](N)C(=O)O)cn1; Gly(decyl) = CCCCCCCCCC[C@H](N)C(=O)O; Gly(N(CH2)3COOH) = O=C(O)CCCNCC(=O)O; X1 = CCCCCCC[C@H](N[*:1])C(=O)[*:2]; NMeCha = CN[C@@H](CC1CCCCC1)C(=O)O; NMeF = CN[C@@H](Cc1ccccc1)C(=O)O; 3Pal = N[C@@H](Cc1cccnc1)C(=O)O; 4Pal = N[C@@H](Cc1ccncc1)C(=O)O; NMeE = CN[C@@H](CCC(=O)O)C(=O)O; Cha = N[C@@H](CC1CCCCC1)C(=O)O; NMeA = CN[C@@H](C)C(=O)O; CO = O=C([*:1])[*:2]; NPrGly = CCCNCC(=O)O; Sar = CNCC(=O)O

Experiments:
[1] = target: T1, GDF-11 (Homo sapiens, UniProt O95390); experiment: HepG2 reporter gene assay, Evaluation Procedure (2): 2-concentrations assay, GDF-11 inhibition; assay type: cell-based; settings: for inhibition: read-out: inhibition rate (GDF-11 inhibition assay)
T1 construct: purchased R&D systems 1958-GD-G8/CF
T1 sequence (O95390 299-407): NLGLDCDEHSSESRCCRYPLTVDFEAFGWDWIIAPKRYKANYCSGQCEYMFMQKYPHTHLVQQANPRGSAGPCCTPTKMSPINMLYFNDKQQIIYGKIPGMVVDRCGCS
Summary of the method: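 HepG2 cells carrying the transfected pGL3(CAGA)12-luc reporter, a pGL3 vector with luciferase placed downstream of 12 CAGA repeats, were stimulated with GDF-11 at a final 10 ng/mL together with test peptide. Blank wells received no GDF-11 and no peptide. Plates were incubated 20 to 24 hours at 37°C with 5% CO2. Luminescence from One-Glo substrate was read to calculate percent inhibition.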

[2] = target: T2, Myostatin (Homo sapiens, UniProt O14793); experiment: HepG2 reporter gene assay, Evaluation Procedure (2): 2-concentrations assay, myostatin inhibition; assay type: cell-based
T2 construct: active myostatin (also called mature myostatin) is a homodimer consisting of two C-terminal growth factor domains; purchased R&D systems 788-G8/CF
T2 sequence (O14793 267-375): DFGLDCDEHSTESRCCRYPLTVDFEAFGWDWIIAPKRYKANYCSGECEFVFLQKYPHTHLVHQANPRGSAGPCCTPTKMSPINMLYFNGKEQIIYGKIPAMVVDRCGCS
Summary of the method: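 Myostatin inhibition was measured in a luciferase reporter assay using HepG2 cells transfected with a pGL3 vector containing 12 CAGA repeats upstream of luciferase. After 20 to 24 hours with 10 ng/mL myostatin, cells received One-Glo:PBS (1:1) at 100 µL/well, were shaken for 5 min, and 20 µL/well was moved to 384-well plates and read on an Envision 2104.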

[3] = HepG2, first GDF-11 column of Table 7-3/7-4, GDF-11 10 ng/mL, peptide at the lower of the 2 concentrations
[4] = HepG2, second GDF-11 column of Table 7-3/7-4, GDF-11 10 ng/mL, peptide at the higher of the 2 concentrations
[5] = Table 7-3/7-4, myostatin 10 ng/mL, peptide at the higher of the 2 concentrations, HepG2, read-out: inhibition rate (myostatin inhibition assay)
[6] = Table 7-3/7-4, myostatin 10 ng/mL, peptide at the lower of the 2 concentrations, HepG2, read-out: inhibition rate (myostatin inhibition assay)
[7] = HepG2, peptide 30nM, GDF-11 10 ng/mL, read-out: GDF11 Inhibition 30nM
[8] = HepG2, peptide 100nM, GDF-11 10 ng/mL, read-out: GDF11 Inhibition 100nM
[9] = peptide 30nM, Myostatin 10 ng/mL, HepG2, read-out: Myostatin Inhibition 30nM
[10] = peptide 100nM, Myostatin 10 ng/mL, HepG2, read-out: Myostatin Inhibition 100nM

Row | Structure (SMILES) | inhibition at 0.03 µM [1, 7] [%] | inhibition at 0.1 µM [1, 8] [%] | inhibition at 0.03 µM [2, 9] [%] | inhibition at 0.1 µM [2, 10] [%] | other results
1 | CCCCCCCCCC[C@@H]1NC(=O)[C@H](Cc2ccccc2)N(C)C(=O)[C@H](CCCNC(=N)N)NC(=O)[C@H](Cc2ccc(C(=O)O)cc2)NC(=O)[C@H](Cc2cccc(OCC(=O)O)c2)NC(=O)CN(CCC)C(=O)[C@H]([C@@H](C)CC)NC(=O)[C@H](Cc2ccccc2)N(C)C(=O)[C@H](Cc2ccc(O)cc2)NC(=O)[C@H](Cc2c[nH]c3cnccc23)NC(=O)[C@H](C)NC(=O)[C@H](C)NC(=O)CSC[C@H](C(=O)N2CCC(CC(=O)O)CC2)NC(=O)[C@H](Cc2ccccc2)N(C)C(=O)[C@H](CCC(=O)O)N(C)C1=O [Myostatin_99_v337] ({CH2CO}-AA[Trp(6-aza)]Y[NMeF]I[NPrGly][Phe(3-OCH2COOH)][Phe(4-COOH)]R[NMeF][Gly(decyl)][NMeE][NMeF][dC]-{Piperidinyl(4-CH2COOH)}; thioether N-15) | – | – | – | – | inhibition [1, 3]: 0%; inhibition [1, 4]: 0%; inhibition at 0.1 µM [2, 5]: 96%; inhibition at 0.03 µM [2, 6]: 82%
2 | CCCCCCC[C@@H]1NC(=O)[C@H](CC2CCCCC2)NC(=O)[C@H](CCCNC(=N)N)NC(=O)[C@H](Cc2ccc(C(=O)O)cc2)NC(=O)[C@H](CCCCNC(=O)N2CCN(CC(=O)O)CC2)NC(=O)[C@H]2CCCN2C(=O)[C@H]([C@@H](C)CC)NC(=O)[C@H](CC2CCCCC2)N(C)C(=O)[C@H](Cc2ccc(O)cc2)NC(=O)[C@H](Cc2ccc(-c3cnn(CC(=O)N(C)C)c3)cc2)NC(=O)[C@@H](CCC(=O)O)NC(=O)[C@H](C)NC(=O)CSC[C@H](C(=O)N2CCN(CC(=O)O)CC2)NC(=O)[C@H](Cc2ccccc2)N(C)C(=O)[C@H](C)N(C)C1=O [Myostatin_99_v256] ({CH2CO}-A[dE][X4]Y[NMeCha]I[dP]K([CO-Piperazinyl(4-CH2COOH)])[Phe(4-COOH)]R[Cha][X1][NMeA][NMeF][dC]-{Piperazinyl(4-CH2COOH)}; thioether N-15) | – | – | – | – | inhibition at 0.03 µM ([1]; HepG2, read-out: GDF11 Inhibition 30nM, peptide 30nM, GDF-11 10 ng/mL): 0%; inhibition at 0.1 µM ([1]; HepG2, read-out: GDF11 Inhibition 100nM, peptide 100nM, GDF-11 10 ng/mL): 4%; inhibition at 0.03 µM ([2]; HepG2, read-out: Myostatin Inhibition 30nM): 57%; inhibition at 0.1 µM ([2]; HepG2, read-out: Myostatin Inhibition 100nM): 88%
3 | CCCCCCC[C@@H]1NC(=O)[C@H](Cc2ccccc2)N(C)C(=O)[C@H](CCCNC(=N)N)NC(=O)[C@H](Cc2ccc(C(=O)O)cc2)NC(=O)[C@H](Cc2ccncc2)NC(=O)CN(C)C(=O)[C@H]([C@@H](C)CC)NC(=O)[C@H](Cc2ccccc2)N(C)C(=O)[C@H](Cc2ccc(O)cc2)NC(=O)[C@H](Cc2c[nH]c3ccccc23)NC(=O)[C@H](C)NC(=O)[C@H](CC2CCN(CC(=O)O)CC2)NC(=O)CSC[C@H](C(=O)O)NC(=O)[C@H](Cc2ccccc2)N(C)C(=O)[C@H](C)N(C)C1=O [Myostatin_99_v232] ({CH2CO}-[Ala(1-CH2CO2H-4-piperidyl)]AWY[NMeF]I[Sar][4Pal][Phe(4-COOH)]R[NMeF][X1][NMeA][NMeF][dC]-OH; thioether N-15) | 0 | 0 | 58 | 84 | –
4 | CC[C@H](C)[C@@H]1NC(=O)[C@H](Cc2ccccc2)N(C)C(=O)[C@H](Cc2ccc(O)cc2)NC(=O)[C@H](Cc2c[nH]c3ccccc23)NC(=O)[C@H](C)NC(=O)CN(CCCC(=O)O)C(=O)CSC[C@H](C(N)=O)NC(=O)[C@H](Cc2ccccc2)N(C)C(=O)[C@H](C)N(C)C(=O)[C@H](CC(C)C)NC(=O)[C@H](Cc2ccccc2)N(C)C(=O)[C@H](CCCNC(=N)N)NC(=O)[C@H](Cc2cccnc2)NC(=O)[C@H](Cc2ccc(O)cc2)NC(=O)CN(C)C1=O [Myostatin_99_Variant_16] ({CH2CO}-[Gly(N(CH2)3COOH)]AWY[NMeF]I[Sar]Y[3Pal]R[NMeF]L[NMeA][NMeF][dC]-NH2; thioether N-15) | 0 | 4 | 34 | 75 | –
5 | CCCCCCC[C@@H]1NC(=O)[C@H](Cc2ccccc2)N(C)C(=O)[C@H](CCCNC(=N)N)NC(=O)[C@H](Cc2ccc(C(=O)O)cc2)NC(=O)[C@H](Cc2cccc(OCC(=O)O)c2)NC(=O)CN(C)C(=O)[C@H]([C@@H](C)CC)NC(=O)[C@H](CC2CCN(C(C)=O)CC2)N(C)C(=O)[C@H](Cc2ccc(O)cc2)NC(=O)[C@H](Cc2c[nH]c3ccccc23)NC(=O)[C@H](C)NC(=O)[C@H](C)NC(=O)CSC[C@H](C(=O)N2CCN(CC(=O)O)CC2)NC(=O)[C@H](Cc2ccccc2)N(C)C(=O)[C@H](C)N(C)C1=O [Myostatin_99_v303] ({CH2CO}-AAWY[X2]I[Sar][Phe(3-OCH2COOH)][Phe(4-COOH)]R[NMeF][X1][NMeA][NMeF][dC]-{Piperazinyl(4-CH2COOH)}; thioether N-15) | 39 | 67 | 100 | 100 | –
6 | CC[C@H](C)[C@@H]1NC(=O)[C@H](Cc2ccccc2)N(C)C(=O)[C@H](Cc2ccc(N)nc2)NC(=O)[C@H](Cc2c[nH]c3ccccc23)NC(=O)[C@H](C)NC(=O)CN(CCCC(=O)O)C(=O)CSC[C@H](C(N)=O)NC(=O)[C@H](Cc2ccccc2)N(C)C(=O)[C@H](C)N(C)C(=O)[C@H](CC(C)C)NC(=O)[C@H](Cc2ccccc2)N(C)C(=O)[C@H](CCCNC(=N)N)NC(=O)[C@H](Cc2cccnc2)NC(=O)[C@H](Cc2ccccc2)NC(=O)CN(C)C1=O [Myostatin_99_Variant_26] ({CH2CO}-[Gly(N(CH2)3COOH)]AW[3Pal(6-NH2)][NMeF]I[Sar]F[3Pal]R[NMeF]L[NMeA][NMeF][dC]-NH2; thioether N-15) | 0 | 0 | 26 | 50 | –
7 | CCCCCCCCCC[C@@H]1NC(=O)[C@H](CC2CCCCC2)NC(=O)[C@H](CCCNC(=N)N)NC(=O)[C@H](Cc2ccc(C(=O)O)cc2)NC(=O)[C@H](Cc2cccc(OCC(=O)O)c2)NC(=O)[C@H](C)N(C)C(=O)[C@H]([C@@H](C)CC)NC(=O)[C@H](Cc2ccccc2)N(C)C(=O)[C@H](Cc2ccc(O)cc2)NC(=O)[C@H](Cc2cn(-c3ccccc3)c3ccccc23)NC(=O)[C@H](C)NC(=O)[C@H](C)NC(=O)CSC[C@H](C(=O)N2CCN(CC(=O)O)CC2)NC(=O)[C@H](Cc2ccccc2)N(C)C(=O)[C@H](CCC(=O)O)N(C)C1=O [Myostatin_99_v333] ({CH2CO}-AA[Trp(1-Ph)]Y[NMeF]I[NMeA][Phe(3-OCH2COOH)][Phe(4-COOH)]R[Cha][Gly(decyl)][NMeE][NMeF][dC]-{Piperazinyl(4-CH2COOH)}; thioether N-15) | – | – | – | – | inhibition [1, 3]: 0%; inhibition [1, 4]: 34%; inhibition at 0.1 µM [2, 5]: 100%; inhibition at 0.03 µM [2, 6]: 100%
8 | CCCCCCCCCC[C@@H]1NC(=O)[C@H](Cc2ccccc2)N(C)C(=O)[C@H](CCCNC(=N)N)NC(=O)[C@H](Cc2ccc(C(=O)O)cc2)NC(=O)[C@H](Cc2cccc(OCC(=O)O)c2)NC(=O)CN(C)C(=O)[C@H]([C@@H](C)CC)NC(=O)[C@H](Cc2ccccc2)N(C)C(=O)[C@H](Cc2ccc(O)cc2)NC(=O)[C@H](Cc2c[nH]c3ccccc23)NC(=O)[C@H](C)NC(=O)[C@H](CCCCNC(=O)N2CCN(CC(=O)O)CC2)NC(=O)CSC[C@H](C(=O)N2CCN(CC(=O)O)CC2)NC(=O)[C@H](Cc2ccccc2)N(C)C(=O)[C@H](C)N(C)C1=O [Myostatin_99_v263] ({CH2CO}-K([CO-Piperazinyl(4-CH2COOH)])AWY[NMeF]I[Sar][Phe(3-OCH2COOH)][Phe(4-COOH)]R[NMeF][Gly(decyl)][NMeA][NMeF][dC]-{Piperazinyl(4-CH2COOH)}; thioether N-15) | 8 | 56 | 100 | 100 | –
9 | CC[C@H](C)[C@@H]1NC(=O)[C@H](Cc2ccccc2)N(C)C(=O)[C@H](Cc2ccc(O)cc2)NC(=O)[C@H](Cc2c[nH]c3ccccc23)NC(=O)[C@H](CCCNC(=N)N)NC(=O)[C@H](C)N(C)C(=O)CSC[C@@H](C(N)=O)NC(=O)[C@H](Cc2ccccc2)N(C)C(=O)[C@H](C)N(C)C(=O)[C@H](CC(C)C)NC(=O)[C@H](Cc2ccccc2)N(C)C(=O)[C@H](CCCNC(=N)N)NC(=O)[C@H](Cc2ccc(O)cc2)NC(=O)[C@H](Cc2ccc(O)cc2)NC(=O)CN(C)C1=O [Myostatin_000099_01meA] ({CH2CO}-[NMeA]RWY[NMeF]I[Sar]YYR[NMeF]L[NMeA][NMeF]C-NH2; thioether N-15) | 0 | 0 | 55 | 82 | –
